Results published in US10975056B2 (GlaxoSmithKline Intellectual Property Development Limited, priority 2016, dated 2021).
Where a name gives a salt, the structure may show the parent alone.

Experiments:
[1] = tested on: erythroid progenitor cells (EPCs); experiment: Fetal hemoglobin (HbF) ELISA in day 7 erythroid progenitor cells; assay type: cell-based, human; settings: Homo sapiens, Erythroid progenitor cell, HbF ELISA, day 7 EPCs, 5 days; read-out: EPC ELISA (pEC50 category) (converted);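 further: for fetal hemoglobin induction normalized to vehicle-treated cells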
Procedure, shortened: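 Read-out was OD450 from an HRP/TMB sandwich ELISA on lysates, normalized to DMSO-only control wells. Thawed day 7 EPCs from human marrow CD34+ cells had been treated for 5 days at 37° C with Compound A, 22 concentrations […].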

DNMT1 = DNMT1 (Homo sapiens, UniProt P26358); experiment: DNMT1 biochemical activity, breaklight assay and/or SPA assay; settings: binned activity in either the breaklight or the SPA assay; for IC50: read-out: DNMT1 BioChemical (pIC50 category) (converted)
DNMT1, sequence (P26358 whole entry, looked up): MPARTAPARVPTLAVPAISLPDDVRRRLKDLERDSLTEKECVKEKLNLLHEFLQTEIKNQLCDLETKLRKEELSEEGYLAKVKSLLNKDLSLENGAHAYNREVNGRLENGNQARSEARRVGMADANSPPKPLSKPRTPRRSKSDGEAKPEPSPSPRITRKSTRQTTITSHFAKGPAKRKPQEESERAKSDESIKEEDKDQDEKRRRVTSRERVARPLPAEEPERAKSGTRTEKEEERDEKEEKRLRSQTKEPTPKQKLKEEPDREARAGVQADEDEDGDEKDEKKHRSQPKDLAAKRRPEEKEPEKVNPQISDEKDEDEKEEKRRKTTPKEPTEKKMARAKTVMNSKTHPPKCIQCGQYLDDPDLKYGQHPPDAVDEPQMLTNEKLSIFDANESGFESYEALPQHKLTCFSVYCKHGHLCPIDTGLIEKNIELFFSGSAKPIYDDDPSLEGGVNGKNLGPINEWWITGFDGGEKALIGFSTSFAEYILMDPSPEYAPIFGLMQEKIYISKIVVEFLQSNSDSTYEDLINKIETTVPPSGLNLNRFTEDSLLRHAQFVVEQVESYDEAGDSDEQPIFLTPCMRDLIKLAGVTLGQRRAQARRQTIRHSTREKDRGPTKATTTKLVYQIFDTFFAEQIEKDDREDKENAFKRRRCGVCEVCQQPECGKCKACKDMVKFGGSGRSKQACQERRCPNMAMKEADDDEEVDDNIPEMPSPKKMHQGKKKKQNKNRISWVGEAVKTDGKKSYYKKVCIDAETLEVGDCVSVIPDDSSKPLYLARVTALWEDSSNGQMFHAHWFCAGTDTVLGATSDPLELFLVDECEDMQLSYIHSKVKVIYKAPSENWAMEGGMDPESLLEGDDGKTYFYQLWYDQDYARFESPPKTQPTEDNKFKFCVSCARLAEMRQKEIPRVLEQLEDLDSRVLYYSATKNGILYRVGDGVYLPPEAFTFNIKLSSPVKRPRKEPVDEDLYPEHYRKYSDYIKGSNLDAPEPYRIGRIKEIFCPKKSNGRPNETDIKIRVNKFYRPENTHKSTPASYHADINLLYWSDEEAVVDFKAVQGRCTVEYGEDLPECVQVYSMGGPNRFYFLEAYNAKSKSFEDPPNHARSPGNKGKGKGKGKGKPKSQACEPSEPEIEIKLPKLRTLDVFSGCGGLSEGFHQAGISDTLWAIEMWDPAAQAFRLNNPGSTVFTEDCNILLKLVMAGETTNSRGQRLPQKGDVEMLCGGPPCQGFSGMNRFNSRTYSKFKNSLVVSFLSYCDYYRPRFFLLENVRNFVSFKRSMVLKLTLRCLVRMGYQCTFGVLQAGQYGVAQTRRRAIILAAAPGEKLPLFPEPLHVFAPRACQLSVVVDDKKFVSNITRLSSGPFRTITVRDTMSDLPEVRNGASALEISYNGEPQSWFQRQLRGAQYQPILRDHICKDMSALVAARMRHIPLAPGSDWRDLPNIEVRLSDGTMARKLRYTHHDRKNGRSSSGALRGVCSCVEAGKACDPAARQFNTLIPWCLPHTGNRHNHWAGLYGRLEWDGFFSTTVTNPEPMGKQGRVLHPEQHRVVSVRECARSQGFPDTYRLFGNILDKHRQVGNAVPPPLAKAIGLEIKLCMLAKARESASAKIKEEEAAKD

CCc1c(C#N)c(SCc2ccc(CS(C)(=O)=O)cc2)nc(N2CCCN(C)CC2)c1C#N [Example 403, 4-Ethyl-2-(4-methyl-1,4-diazepan-1-yl)-6-(4-(methylsulfonylmethyl)benzylthio)pyridine-3,5-dicarbonitrile]
EC50 [1]: 0.316 to 1 µM
IC50 (DNMT1): 0.316 to 1 µM

CCc1c(C#N)c(SCc2ccccc2)nc(N2CCC(NC(=O)CN)CC2)c1C#N [Example 94, 2-Amino-N-(1-(6-(benzylthio)-3,5-dicyano-4-ethylpyridin-2-yl)piperidin-4-yl)acetamide, Trifluoroacetic Acid Salt]
EC50 [1]: > 31.6 µM
IC50 (DNMT1): 0.316 to 1 µM

CCNCCN(C)c1nc(SC(C(N)=O)c2ccccc2)c(C#N)c(CC)c1C#N (centres unmarked) [Example 468, 2-(3,5-dicyano-4-ethyl-6-((2-(ethylamino)ethyl)(methyl)amino)pyridin-2-ylthio)-2-phenylacetamide]
EC50 [1]: < 0.316 µM
DNMT1 BioChemical (pIC50 category) (DNMT1): D (Category D: ≥6.5)

CN(C)C1CCN(c2nc(SC(C(N)=O)c3ccccc3)c(C#N)c(C3CC3)c2C#N)CC1 (centres unmarked) [Example 29, 2-((3,5-dicyano-4-cyclopropyl-6-(4-(dimethylamino)piperidin-1-yl)pyridin-2-yl)thio)-2-phenylacetamide]
EC50 [1]: < 0.316 µM
DNMT1 BioChemical (pIC50 category) (DNMT1): D (Category D: ≥6.5)

CCc1c(C)c(N2CCC(N)CC2)nc(SC(C(N)=O)c2ccccc2)c1C#N (centres unmarked) [Example 376, 2-(6-(4-Aminopiperidin-1-yl)-3-cyano-4-ethyl-5-methylpyridin-2-ylthio)-2-phenylacetamide]
EC50 [1]: 0.316 to 1 µM
IC50 (DNMT1): 0.316 to 1 µM

CCc1c(C#N)c(SC(C(N)=O)c2cc(F)ncc2F)nc(N2CCCN(C)CC2)c1C#N (centres unmarked) [Example 249, 2-((3,5-Dicyano-4-ethyl-6-(4-methyl-1,4-diazepan-1-yl)pyridin-2-yl)thio)-2-(2,5-difluoropyridin-4-yl)acetamide]
EC50 [1]: > 31.6 µM
IC50 (DNMT1): 1 to 31.6 µM

CCc1c(C#N)c(SCc2ccc(N(C)S(C)(=O)=O)cc2)nc(N2CCCC(CN(C)C)C2)c1C#N (centres unmarked) [Example 597, N-(4-(((3,5-dicyano-6-(3-((dimethylamino)methyl)piperidin-1-yl)-4-ethylpyridin-2-yl)thio)methyl)phenyl)-N-methylmethanesulfonamide]
EC50 [1]: < 0.316 µM
DNMT1 BioChemical (pIC50 category) (DNMT1): D (Category D: ≥6.5)

CCc1c(C#N)c(SC(C(N)=O)c2ccccc2)nc(N(C)CC(=O)N2CC[C@@H](O)C2)c1C#N (stereo partly drawn) [Example 613, 2-((3,5-dicyano-4-ethyl-6-((2-((R)-3-hydroxypyrrolidin-1-yl)-2-oxoethyl)(methyl)amino)pyridin-2-yl)thio)-2-phenylacetamide]
EC50 [1]: < 0.316 µM
DNMT1 BioChemical (pIC50 category) (DNMT1): D (Category D: ≥6.5)

CCOc1c(C#N)c(SCc2ccc(CNC(C)=O)cc2)nc(N2CCCN(C)CC2)c1C#N [Example 105, N-(4-(((3,5-Dicyano-4-ethoxy-6-(4-methyl-1,4-diazepan-1-yl)pyridin-2-yl)thio)methyl)benzyl)acetamide]
EC50 [1]: 1 to 31.6 µM
DNMT1 BioChemical (pIC50 category) (DNMT1): D (Category D: ≥6.5)

CCc1c(C#N)c(SC(C(N)=O)c2ccccc2)nc(N2CCN(Cc3cnco3)CC2)c1C#N (centres unmarked) [Example 184, 2-((3,5-Dicyano-4-ethyl-6-(4-(oxazol-5-ylmethyl)piperazin-1-yl)pyridin-2-yl)thio)-2-phenylacetamide]
EC50 [1]: 0.316 to 1 µM
IC50 (DNMT1): 0.316 to 1 µM

CCc1c(C#N)c(SCc2ccc3c(c2)OCO3)nc(N2CCCN(C)CC2)c1C#N [Example 346, 2-((Benzo[1,3]dioxol-5-ylmethyl)thio)-4-ethyl-6-(4-methyl-1,4-diazepan-1-yl)pyridine-3,5-dicarbonitrile]
EC50 [1]: > 31.6 µM
IC50 (DNMT1): 0.316 to 1 µM

CCc1c(C#N)c(SCc2ccc(CNC(=O)C(C)C)cc2)nc(N2CCCN(C)CC2)c1C#N [Example 88, N-(4-(((3,5-Dicyano-4-ethyl-6-(4-methyl-1,4-diazepan-1-yl)pyridin-2-yl)thio)methyl)benzyl)isobutyramide]
EC50 [1]: > 31.6 µM
IC50 (DNMT1): 0.316 to 1 µM

CCc1c(C#N)c(SC(C(N)=O)c2ccccc2)nc(N2CCN(Cc3cc[nH]c3)CC2)c1C#N (centres unmarked) [Example 182, 2-((6-(4-((1H-Pyrrol-3-yl)methyl)piperazin-1-yl)-3,5-dicyano-4-ethylpyridin-2-yl)thio)-2-phenylacetamide]
EC50 [1]: 0.316 to 1 µM
IC50 (DNMT1): 0.316 to 1 µM

CCc1c(C#N)c(SC(C(N)=O)c2ccccc2)nc(N(C)CC(=O)NOC)c1C#N (centres unmarked) [Example 663, 2-((6-((2-amino-2-oxo-1-phenylethyl)thio)-3,5-dicyano-4-ethylpyridin-2-yl)(methyl)amino)-N-methoxyacetamide]
EC50 [1]: < 0.316 µM
DNMT1 BioChemical (pIC50 category) (DNMT1): D (Category D: ≥6.5)

CN(CC(=O)N1CC(O)C1)c1nc(SC(C(N)=O)c2ccccc2)c(C#N)c(C2CC2)c1C#N (centres unmarked) [Example 392, 2-((3,5-Dicyano-4-cyclopropyl-6-((2-(3-hydroxyazetidin-1-yl)-2-oxoethyl) (methyl)amino)pyridin-2-yl)thio)-2-phenylacetamide]
EC50 [1]: 0.316 to 1 µM
DNMT1 BioChemical (pIC50 category) (DNMT1): D (Category D: ≥6.5)

N#Cc1c(SC(C(N)=O)c2ccccc2)nc(N2CC(NC(=O)[C@H](N)CO)C2)c(C#N)c1C1CC1 (stereo partly drawn) [Example 614, (2R)-2-amino-N-(1-(6-((2-amino-2-oxo-1-phenylethyl)thio)-3,5-dicyano-4-cyclopropylpyridin-2-yl)azetidin-3-yl)-3-hydroxypropanamide]
EC50 [1]: 1 to 31.6 µM
DNMT1 BioChemical (pIC50 category) (DNMT1): D (Category D: ≥6.5)

CCc1c(C#N)c(SC(C(N)=O)c2ccccc2)nc(N2CCOC(CN3CCCC3)C2)c1C#N (centres unmarked) [Example 560, 2-((3,5-dicyano-4-ethyl-6-(2-(pyrrolidin-1-ylmethyl)morpholino)pyridin-2-yl)thio)-2-phenylacetamide]
EC50 [1]: < 0.316 µM
DNMT1 BioChemical (pIC50 category) (DNMT1): D (Category D: ≥6.5)

CCc1c(C#N)c(SC(C(N)=O)c2ccccc2)nc(N(C)CCN2CCC[C@@H]2C)c1C#N (stereo partly drawn) [Example 463, 2-((3,5-dicyano-4-ethyl-6-(methyl(2-((S)-2-methylpyrrolidin-1-yl)ethyl)amino)pyridin-2-yl)thio)-2-phenylacetamide]
EC50 [1]: < 0.316 µM
DNMT1 BioChemical (pIC50 category) (DNMT1): D (Category D: ≥6.5)

CCc1c(C#N)c(SCc2ccc(C#N)c(C)c2)nc(N2CCCN(C)CC2)c1C#N [Example 295, 2-((4-Cyano-3-methylbenzyl)thio)-4-ethyl-6-(4-methyl-1,4-diazepan-1-yl)pyridine-3,5-dicarbonitrile]
EC50 [1]: > 31.6 µM
IC50 (DNMT1): 0.316 to 1 µM

CCc1c(C#N)c(SC(C(N)=O)c2ccccc2)nc(N(C)CC(=O)N2C[C@@H](O)[C@H](O)C2)c1C#N (stereo partly drawn) [Example 653, 2-((3,5-dicyano-6-((2-((3R,4R)-3,4-dihydroxypyrrolidin-1-yl)-2-oxoethyl)(methyl)amino)-4-ethylpyridin-2-yl)thio)-2-phenylacetamide]
EC50 [1]: 1 to 31.6 µM
DNMT1 BioChemical (pIC50 category) (DNMT1): D (Category D: ≥6.5)

CCc1c(C#N)c(SC(C(N)=O)c2ccccc2)nc(N2CCN(Cc3ccncc3)CC2)c1C#N (centres unmarked) [Example 173, 2-((3,5-Dicyano-4-ethyl-6-(4-(pyridin-4-ylmethyl)piperazin-1-yl)pyridin-2-yl)thio)-2-phenylacetamide]
EC50 [1]: 0.316 to 1 µM
IC50 (DNMT1): 0.316 to 1 µM

CCc1c(C#N)c(SC(C(N)=O)c2cccnc2)nc(N2CC[C@H](O)C2)c1C#N (stereo partly drawn) [Example 181, 2-((3,5-Dicyano-4-ethyl-6-((S)-3-hydroxypyrrolidin-1-yl)pyridin-2-yl)thio)-2-(pyridin-3-yl)acetamide]
EC50 [1]: 1 to 31.6 µM
IC50 (DNMT1): 0.316 to 1 µM

CCc1c(C#N)c(SC(C(N)=O)c2ccccc2)nc(N2CCC[C@H](NCC(C)(C)C)C2)c1C#N (stereo partly drawn) [Example 651, 2-((3,5-dicyano-4-ethyl-6-((S)-3-(neopentylamino)piperidin-1-yl)pyridin-2-yl)thio)-2-phenylacetamide]
EC50 [1]: < 0.316 µM
DNMT1 BioChemical (pIC50 category) (DNMT1): D (Category D: ≥6.5)

CCc1c(C#N)c(SC(C(N)=O)c2ccccc2)nc(N2CC[C@@H](N)C2)c1C#N (stereo partly drawn) [Example 524, 2-((6-((R)-3-aminopyrrolidin-1-yl)-3,5-dicyano-4-ethylpyridin-2-yl)thio)-2-phenylacetamide]
EC50 [1]: < 0.316 µM
DNMT1 BioChemical (pIC50 category) (DNMT1): D (Category D: ≥6.5)

CCc1c(C#N)c(S[C@H](C(N)=O)c2ccc(F)cc2)nc(N2CCC(N(C)C)CC2)c1C#N (single isomer, unassigned) [Example 465, 2-((3,5-dicyano-6-(4-(dimethylamino)piperidin-1-yl)-4-ethylpyridin-2-yl)thio)-2-(4-fluorophenyl)acetamide, Formic acid salt]
EC50 [1]: < 0.316 µM
DNMT1 BioChemical (pIC50 category) (DNMT1): D (Category D: ≥6.5)

CCc1c(C#N)c(SC(C(N)=O)c2ccccc2)nc(N2CCN(C(=O)C3(N)COC3)CC2)c1C#N (centres unmarked) [Example 139, 2-((6-(4-(3-Aminooxetane-3-carbonyl)piperazin-1-yl)-3,5-dicyano-4-ethylpyridin-2-yl)thio)-2-phenylacetamide, Formic Acid Salt]
EC50 [1]: 0.316 to 1 µM
DNMT1 BioChemical (pIC50 category) (DNMT1): D (Category D: ≥6.5)

CCc1c(C#N)c(SC(C(N)=O)c2ccccc2)nc(N2CCC(N3CCC[C@H]3CO)CC2)c1C#N (stereo partly drawn) [Example 441, 2-((3,5-dicyano-4-ethyl-6-(4-((S)-2-(hydroxymethyl)pyrrolidin-1-yl)piperidin-1-yl)pyridin-2-yl)thio)-2-phenylacetamide]
EC50 [1]: < 0.316 µM
DNMT1 BioChemical (pIC50 category) (DNMT1): D (Category D: ≥6.5)

CCc1c(C#N)c(S[C@@H](C(N)=O)c2ccccc2)nc(N2CCOCC2)c1C#N [Example 65, (R)-2-[(3,5-Dicyano-4-ethyl-6-morpholino-2-pyridyl)sulfanyl]-2-phenyl-acetamide]
EC50 [1]: 1 to 31.6 µM
IC50 (DNMT1): 0.316 to 1 µM
